Experimental data as given in patent publication US8222261B2, “Chemical compounds” (GlaxoSmithKline, LLC, priority 2006, dated 2012).

Experiments:
[1] = test system: C57BL/6 male mice; test: Effect of a GPR119 agonist on circulating GLP-1 and GIP in vivo in mice; conditions: fasted mice, 1, 3, 10, 30 or 60 mg/kg oral gavage, 60 min after dosing
Method: Ten weeks old C57BL/6 male mice (Taconic Farms, USA) were fasted overnight then randomly distributed into 6 treatment groups (n=10 mice per treatment group) receiving either vehicle (0.5% HPMC/0.1% Tween80), or a GPR119 agonist (Example 1) at five different doses (1, 3, 10, 30 or 60 mg/kg) by oral gavage. All animals were dosed with a volume of 10 mL/kg of their designated treatment. Sixty minutes after the oral gavage the mice were anesthetized using isofluorane for collection of blood samples by cardiac puncture. All mice were euthanized by cervical dislocation immediately following the cardiac puncture. […] Total GLP-1 levels were determined using a MULTI-ARRAY® electrochemoluminescence assay from Meso Scale Discovery (Cat #K110-FAC-2; Gaithersburg, Md.). Total GIP levels were determined using an ELISA assay (Cat# EZRMGIP-55K, Linco Diagnostic Services, St Charles, Mo.).
Data is represented as box plots summarizing the distribution of individual data point for each treatment group. […] FIG. 1 and FIG. 2 show total GLP-1 and total GIP respectively measured in circulation following administration of vehicle or a GPR119 agonist (Example 1) at doses as indicated.

[2] = test system: transgenic wild-type (WT) and GPR119 knock-out (KO) mice; test: Effect on circulating GLP-1 and GIP in wild-type and GPR119 knock-out mice; type: in vivo; conditions: 30 mg/kg oral gavage; for incretin hormone levels (total GLP-1 and GIP): 60 min after dosing
Method: 17 weeks old male transgenic wild-type (WT) and GPR119 knock-out (KO) mice (Charles River Laboratories, USA) were fasted overnight then randomly distributed into two treatment groups for each genotype with n=8 and n=10 animals per treatment group for KO and WT mice respectively. Animals received either vehicle (0.5% HPMC/0.1% Tween80) or a GPR119 agonist (Example 1) at a dose of 30 mg/kg (10 mL/kg), administered by oral gavage. Sixty minutes after the oral gavage the mice were anesthetized using isofluorane and a blood sample was collected by cardiac puncture, before sacrificing the animal by cervical dislocation. Blood samples were treated as described above for determination of incretin hormone levels. Plasma glucose levels were measured using an Olympus AU640 analyzer (Olympus America Inc, Melville, N.Y.), and insulin levels an electrochemoluminescence assay (Bioveris, Gaithersburg Md.).
Data is represented as box plots summarizing the distribution of data for each treatment group, as described above. Horizontal lines represent the mean data. FIG. 3 and FIG. 4 show total GLP-1 and GIP levels measured in circulation following administration of vehicle or 30 mg/kg GPR119 agonist (Example 1) in WT and KO mice.

[3] = test system: Male Sprague-Dawley rats; test: Oral glucose tolerance in rats; type: in vivo; conditions: fasted rats, 10 mg/kg oral
Method: Eight weeks old male Sprague-Dawley rats had catheters surgically implanted into the jugular […] vein and allowed to recover for one week. Food was removed in the afternoon the day before the experiment to fast animals overnight. The following morning animals were randomly assigned to treatment groups to receive vehicle (n=7) (0.5% HPMC/0.1% Tween80), a GPR119 agonist (Example 1, 10 mg/kg) or a positive control (10 mg/kg), namely a DPPIV inhibitor as described above. Vehicle and compounds were delivered by oral gavage at a volume of […]. Two and a half hours after administration of vehicle or GPR119 agonist and one hour administration of DPPIV inhibitor, 2 g/kg dextrose was administered orally. […] The tubes were immediately centrifuged, plasma collected for subsequent measurement of glucose and hormone levels and stored at −80° C. Plasma glucose, insulin and total GLP-1 levels were measured as described above.
The data is represents as mean values±SEM from all animals within each treatment group.

[4] = test system: Male Sprague Dawley rats; test: Whole body insulin sensitivity, euglycemic hyperinsulinemic clamp in rats; type: in vivo; conditions: 10 mg/kg oral
Method: Male Sprague Dawley rats, weighing at 300-350 gram, had catheters surgically implanted into the jugular and femoral veins and allowed to recover for one week following the surgery. On the day before the experiment, food was removed in the afternoon to fast the animals overnight. The following morning animals were randomly assigned to two treatment groups, vehicle (n=7) and or 10 mg/kg of a GPR119 agonist (Example 1, n=9). Blood samples were collected from the jugular vein for baseline glucose measurements prior to oral administration of the respective treatment. The euglycemic hyperinsulinemic clamp was initiated approximately 90 minutes following oral administration of the respective treatments, by starting the constant insulin infusion at a rate of 1 mU/kg/min human insulin (Humulin, Eli Lilly and Company, Indianapolis, Id.) into the femoral vein of conscious animals. Whole blood glucose levels were measured every 10 minutes throughout the clamp. As the plasma glucose levels began to fall exogenous glucose infusion was started at a variable rate adjusted to achieve a stable plasma glucose level of 90-100 mg/dl. The glucose infusion rate required to maintain euglycemia was recorded throughout the experiment for each animal, and represents a measure of insulin sensitivity. Plasma glucose and human insulin levels were measured at the end of the clamp (at 180 min) as described above. At the end of the study the rats were sacrificed by an overdose of Nembutal.
Data is represented as box plots summarizing the distribution of data for each treatment group, as described above. Horizontal lines represent the mean data. […] The data is represented as mean GIR±SEM. At steady state, 180 minutes after starting the clamp, the glucose infusion rate required to maintain euglycemia in Example 1 treated animals were three times that of vehicle treated animals.

[5] = rats, end of clamp (180 min), between treatment groups

CC(C)OC(=O)N1CCC(Oc2ncnc3c2CCN3c2ccc(S(C)(=O)=O)cc2F)CC1 [Example 1, 1-Methylethyl 4-({7-[2-fluoro-4-(methylsulfonyl)phenyl]-6,7-dihydro-5H-pyrrolo[2,3-d]pyrimidin-4-yl}oxy)-1-piperidinecarboxylate]
circulating total GIP levels [1]: dose dependent increase | circulating total GLP-1 levels [1]: dose dependent increase | incretin hormone levels (total GLP-1 and GIP) ([2]; GPR119 knock out mice): without effect | fasting glucose levels ([2]; WT and KO mice, 60 min): not affected | fasting insulin levels ([2]; WT and KO mice, 60 min): not affected | incretin hormone levels (total GLP-1 and GIP) ([2]; WT mice): increase | reduction of total glucose area under the curve (AUC) ([3]; Example 1 2.5 h and DPPIV inhibitor 1 h before 2 g/kg dextrose oral): 38% | glucose excursion during the 120 minutes oral glucose tolerance test ([3]; Example 1 2.5 h and DPPIV inhibitor 1 h before 2 g/kg dextrose oral, vs vehicle): significantly decreased | baseline total GLP-1 ([3]; before the oral glucose load, compared to vehicle and DPPIV treated animals): significantly increased | Insulin AUC ([3]; oral glucose tolerance test, between treatment groups): not significantly different | total GLP-1 AUC ([3]; oral glucose tolerance test, compared to vehicle and DPPIV treated animals): significantly increased | whole body insulin sensitivity ([4]; normal rats, euglycemic hyperinsulinemic clamp): enhances | euglycemia (plasma glucose at the end of the clamp) [4, 5]: no significant difference | steady state insulin exposure [4, 5]: no significant difference | glucose infusion rate required to maintain euglycemia, relative to vehicle ([4]; rats, steady state 180 minutes after starting the clamp, insulin 1 mU/kg/min): three times
